The values that follow are results of earlier work, collected in US9895325B2, “Tablet composition comprising cinacalcet hydrochloride” (SYNTHON B.V., priority 2012, dated 2018).

For this data set the following is noted: pH 1.

Molecules are shown by their SMILES.

Take `C[C@@H](NCCCc1cccc(C(F)(F)F)c1)c1cccc2ccccc12.Cl` [Cinacalcet hydrochloride]: the solubility result is listed as “approx. 0.1 mg/ml”.
